Laboratory results as given in PubChem BioAssay AID1963863 (Molecular Pharmacology Branch, DTP, NCI, 2024).
pIC50: −log10 of the molar value.

Test system: 931267-113-T-J1-PDC KRAS spheroid with HUVEC/MSC, viability
Assay: Anticancer human tumor 931267-113-T-J1-PDC patient-derived colon adenocarcinoma cell line growth inhibition [KRAS2]
Conditions: for pIC50: curve of first compound; for viability, T/C: stronger effect = lower value
Outline: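 Combination screen of spheroid viability in tumor-cell co-cultures with endothelial (HUVEC) and mesenchymal stem cell stroma. Each agent was tested in half-log dilutions, topping at clinical Cmax or at 10 microM without a known Cmax.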

[1] = second compound 0.1 µM, first compound 0.01 µM
[2] = second compound 0.1 µM, first compound 0.0316 µM
[3] = second compound 0.1 µM, first compound 0.1 µM
[4] = second compound 0.1 µM, first compound 0.316 µM
[5] = second compound 0.1 µM, first compound 1 µM
[6] = second compound 0.1 µM, first compound 3.16 µM
[7] = second compound 0.316 µM, first compound 0.01 µM
[8] = second compound 0.316 µM, first compound 0.0316 µM
[9] = second compound 0.316 µM, first compound 0.1 µM
[10] = second compound 0.316 µM, first compound 0.316 µM
[11] = second compound 0.316 µM, first compound 1 µM
[12] = second compound 0.316 µM, first compound 3.16 µM
[13] = second compound 1 µM, first compound 0.01 µM
[14] = second compound 1 µM, first compound 0.0316 µM
[15] = second compound 1 µM, first compound 0.1 µM
[16] = second compound 1 µM, first compound 0.316 µM
[17] = second compound 1 µM, first compound 1 µM
[18] = second compound 1 µM, first compound 3.16 µM
[19] = second compound 3.16 µM, first compound 0.01 µM
[20] = second compound 3.16 µM, first compound 0.0316 µM
[21] = second compound 3.16 µM, first compound 0.1 µM
[22] = second compound 3.16 µM, first compound 0.316 µM
[23] = second compound 3.16 µM, first compound 1 µM
[24] = second compound 3.16 µM, first compound 3.16 µM
[25] = second compound 10 µM, first compound 0.01 µM
[26] = second compound 10 µM, first compound 0.0316 µM
[27] = second compound 10 µM, first compound 0.1 µM
[28] = second compound 10 µM, first compound 0.316 µM
[29] = second compound 10 µM, first compound 1 µM
[30] = second compound 10 µM, first compound 3.16 µM
[31] = second compound 0.1 µM, first compound 10 µM
[32] = second compound 0.316 µM, first compound 10 µM
[33] = second compound 1 µM, first compound 10 µM
[34] = second compound 3.16 µM, first compound 10 µM
[35] = second compound 10 µM, first compound 10 µM
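Further: compound exposure lasted 7 days before the readout.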
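Wherever viability, T/C is given: 100% = DMSO vehicle control viability.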

Structure (SMILES) | pIC50 (second compound 0.1 µM) | pIC50 (second compound 0.316 µM) | pIC50 (second compound 1 µM) | pIC50 (second compound 3.16 µM) | pIC50 (second compound 10 µM) | viability, T/C [2] | viability, T/C [3] | viability, T/C [4] | viability, T/C [5] | viability, T/C [8] | viability, T/C [9] | viability, T/C [10] | viability, T/C [11] | viability, T/C [14] | viability, T/C [15] | viability, T/C [16] | viability, T/C [17] | viability, T/C [20] | viability, T/C [21] | viability, T/C [22] | also measured
CC1COCCN1c1cc(-c2ccnn2C)c2ccnc(-c3ccn[nH]3)c2n1 (stereo not given) + COc1cc2nc(C)nc(NC(C)c3cc(N)cc(C(F)(F)F)c3)c2cc1OC1CCOC1 | 7.34 | 7.37 | 7.55 | 7.48 | > 8.00 | 61.2% | 25% | 19.5% | 15.1% | 59.3% | 24.5% | 17.8% | 15.4% | 46.6% | 24.1% | 13.6% | 17.7% | 51.6% | 16.2% | 11.2% | viability, T/C [1]: 75.4%; viability, T/C [6]: 15.2%; viability, T/C [7]: 83.4%; viability, T/C [12]: 15.3%; viability, T/C [13]: 76.3%; viability, T/C [18]: 15.9%; viability, T/C [19]: 70.4%; viability, T/C [23]: 15%; viability, T/C [24]: 14%; viability, T/C [25]: 1.71%; viability, T/C [26]: 2.62%; viability, T/C [27]: 3.95%; viability, T/C [28]: 1.66%; viability, T/C [29]: 2.29%; viability, T/C [30]: 1.1%
CC1OCC2(CCN(c3cnc(Sc4ccnc(N)c4Cl)c(N)n3)CC2)C1N (stereo not given) + COc1cc2nc(C)nc(NC(C)c3cc(N)cc(C(F)(F)F)c3)c2cc1OC1CCOC1 | < 5.00 | < 5.00 | < 5.00 | < 5.00 | > 7.50 | 79.3% | 59% | 75.5% | 77.5% | 62.2% | 56.1% | 65% | 68.1% | 70.6% | 72.8% | 56% | 63.1% | 70.7% | 49.8% | 51.8% | viability, T/C [6]: 68.3%; viability, T/C [31]: 90.7%; viability, T/C [12]: 70.6%; viability, T/C [32]: 77.9%; viability, T/C [18]: 79%; viability, T/C [33]: 64.9%; viability, T/C [23]: 54.9%; viability, T/C [24]: 61.4%; viability, T/C [34]: 67.6%; viability, T/C [26]: 3.02%; viability, T/C [27]: 2.08%; viability, T/C [28]: 4.77%; viability, T/C [29]: 2.12%; viability, T/C [30]: 2.08%; viability, T/C [35]: 0.42%
CCN1CCN(Cc2ccc(Nc3ncc(F)c(-c4cc(F)c5nc(C)n(C(C)C)c5c4)n3)nc2)CC1 + COc1cc2nc(C)nc(NC(C)c3cc(N)cc(C(F)(F)F)c3)c2cc1OC1CCOC1 | 6.34 | 6.91 | 6.59 | 7.17 | > 8.50 | 62.5% | 74.7% | 45.5% | 45.9% | 72.2% | 51.2% | 47.2% | 37.4% | 76.3% | 56.4% | 53.2% | 42.7% | 49.7% | 48.8% | 42.4% | viability, T/C (second compound 0.1 µM, first compound 0.00316 µM): 86.4%; viability, T/C [1]: 86.8%; viability, T/C (second compound 0.316 µM, first compound 0.00316 µM): 80.6%; viability, T/C [7]: 90.1%; viability, T/C (second compound 1 µM, first compound 0.00316 µM): 78.7%; viability, T/C [13]: 78.1%; viability, T/C (second compound 3.16 µM, first compound 0.00316 µM): 74.5%; viability, T/C [19]: 67.2%; viability, T/C [23]: 27.1%; viability, T/C (second compound 10 µM, first compound 0.00316 µM): 3.71%; viability, T/C [25]: 1.83%; viability, T/C [26]: 2.06%; viability, T/C [27]: 3.4%; viability, T/C [28]: 1.38%; viability, T/C [29]: 0.23%
CCNC(=O)CC1N=C(c2ccc(Cl)cc2)c2cc(OC)ccc2-n2c(C)nnc21 (stereo not given) + COc1cc2nc(C)nc(NC(C)c3cc(N)cc(C(F)(F)F)c3)c2cc1OC1CCOC1 | 5.75 | 6.15 | 6.20 | 6.30 | > 7.50 | 81.1% | 73.4% | 58.7% | 63.5% | 78.1% | 62.4% | 75.9% | 40.7% | 66.1% | 76.3% | 59.1% | 42.1% | 59.5% | 64.7% | 62.4% | viability, T/C [6]: 41.7%; viability, T/C [31]: 31.9%; viability, T/C [12]: 31.4%; viability, T/C [32]: 26.6%; viability, T/C [18]: 30.8%; viability, T/C [33]: 22.4%; viability, T/C [23]: 32.5%; viability, T/C [24]: 23.2%; viability, T/C [34]: 22%; viability, T/C [26]: 2.75%; viability, T/C [27]: 3.6%; viability, T/C [28]: 1.18%; viability, T/C [29]: 0.76%; viability, T/C [30]: 0.92%; viability, T/C [35]: 0.42%
Cn1nccc1Nc1nccc(-c2cc3c(s2)C(C)(C)N(CCN2CCOCC2)C3=O)n1 + COc1cc2nc(C)nc(NC(C)c3cc(N)cc(C(F)(F)F)c3)c2cc1OC1CCOC1 | 6.35 | 6.29 | 6.33 | 6.64 | > 7.50 | 80.2% | 95.3% | 54% | 29.5% | 84.6% | 88.2% | 62.7% | 31.2% | 79.8% | 73.6% | 62.6% | 26.2% | 71.3% | 68.4% | 42.4% | viability, T/C [6]: 9.12%; viability, T/C [31]: 3.49%; viability, T/C [12]: 4.2%; viability, T/C [32]: 2.13%; viability, T/C [18]: 8.33%; viability, T/C [33]: 2.61%; viability, T/C [23]: 15.5%; viability, T/C [24]: 3.42%; viability, T/C [34]: 2.28%; viability, T/C [26]: 3.64%; viability, T/C [27]: 2.94%; viability, T/C [28]: 2.42%; viability, T/C [29]: 1.97%; viability, T/C [30]: 0.91%; viability, T/C [35]: 0.28%
